Measurements as given in PMC6696095, “Purification and Characterization of Ornithine Decarboxylase from Aspergillus terreus; Kinetics of Inhibition by Various Inhibitors” (Molecules, 2019).
pIC50: −log10 of the molar value. Where “and” joins values, the source holds several entries; their conditions need not be identical. Identical values can stand only once. Like-named read-outs stand apart in the source and are kept apart here.

Columns and labels:
A. terreus ODC [1] = biological target: T1, A. terreus ODC (Aspergillus terreus, UniProt A0ACN5CWH9); assay: Substrate specificity of purified ODC, Nessler's assay (ammonia); format: biochemical; conditions: for Nessler's Assay Activity: amino acid as substrate; for Nessler's Assay Relative Activity: normalized to L-ornithine as standard substrate
Protocol: (§1) The specificity of purified A. terreus ODC towards various amino acids as substrates has been evaluated based on the putative enzymatic byproducts such as ammonia, citrulline and putrescine (see Materials and Methods). […] The putative deaminating, deiminating and decarboxylating activity of ODC for each substrate was assessed (Table 3).
(§2) The putative enzymatic byproducts such as ammonia, citrulline and putrescine were determined by Nessler’s reagent, diacetylmonoxime reagent and TNBS [42], respectively, under standard conditions. The kinetic parameters of A. terreus ODC; Michalis-Menten constant (Km), maximum velocity (Vmax), and turnover number (kcat) and catalytic efficiency towards the most hydrolysable amino acids were calculated.

A. terreus ODC [2] = biological target: T1, A. terreus ODC; assay: Substrate specificity of purified ODC, diacetyl monoxime assay (citrulline / imino groups); format: biochemical; conditions: for Diacetyl Monoxime Assay Activity: amino acid as substrate
Protocol: as §1, §2

A. terreus ODC [3] = biological target: T1, A. terreus ODC; assay: Substrate specificity of purified ODC, TNBS assay (putrescine); format: biochemical; conditions: released putrescine; for TNBS Assay Activity: amino acid as substrate; for TNBS Assay Relative Activity: normalized to L-ornithine
Protocol: as §1
(§3) The activity of ODC was determined based on the amount of released putrescine using 2,4,6-tri-nitrobenzene sulfonic acid (TNBS) reagent. […] The reaction was stopped by 10% TCA then neutralized by adding adequate amount of 2N NaOH. 1-Pentanol (2 mL) was added was added to the reaction mixture which was subsequently vortexed for 1 min and centrifuged at 5000 rpm for 5 min. The upper layer was transferred into a new tube, combined with an equal volume of 0.1 M sodium borate (pH 8.0). After vigorously mixing, 500 µL of TNBS (10 mM) reagent was added, subjected to 1 min vortex before adding 2 mL DMSO, and centrifuging at 6000 rpm for 5 min and left to separate into two layers. The upper layer containing TNP-putrescine-TNP was collected by micropipette and the absorbance at λ = 420 nm will reveal putrescine concentration based on a parallel measurement of authentic putrescine at the same conditions. The enzyme protein concentration was measured by Folinʹs reagent, comparing to a known concentration of bovine serum albumin.
as §2

A. terreus ODC [4] = biological target: T1, A. terreus ODC; format: biochemical; conditions: Nessler's, diacetylmonoxime and TNBS assays
Protocol: as §1, §2

A. terreus ODC [5] = biological target: T1, A. terreus ODC; assay: Effect of inhibitors on activity of purified A. terreus ODC (residual activity, standard TNBS assay); format: biochemical; conditions: for Relative Activity (%): enzyme preincubated 2 h, then L-ornithine, residual ODC activity; for IC50: purified A. terreus ODC; for activity at 5 µg/mL / activity at 40 µg/mL / activity at 200 µg/mL / activity at 400 µg/mL: read-out: Relative Activity (%)
From the text: The amino acid identity of the active sites implicated in the catalysis of A. terreus ODC has been scrutinized by the response to suicide inhibitors, namely propargylgycine (PPG), guanidine thiocyanate, hydroxylamine, iodoacetamide, DTNB, MBTH and curcumin. […] Consistently, curcumin has been extensively reported a strong inhibitor to the activity of tumor cells ODC, modulating the cellular polyamine metabolism. Elevated polyamine synthesis was recognized as profound compounds for survival and rapid proliferation of tumor cells, thus, targeting the ODC, rate limiting enzyme of polyamine synthesis, has been considered as powerful chemopreventive therapy for tumor cells. […] The enzyme irreversible inactivation by carbonyl reagents such as PPG, ensures the PLP dependence of these enzymes.
as §3
Active site prediction using amino acids analogues has been recognized as one of the mechanisms for interrogation of enzymatic identity. The influence of various inhibitors namely 5,5′-dithiobis-2-nitrobenzoic acid, 3-methyl-2-benzothiazolinone-hydrazone, guanidine thiocyanate, iodoacetamide, hydroxylamine, propargylglycine and curcumin on the activity of purified ODC was estimated. The enzyme was incubated with different inhibitor concentrations (5, 40, 200, 400 µg/mL) for 2 h at 30 °C, then amended with the substrate, and the residual activity of the enzyme were determined by the standard assay. The inhibitory kinetic parameters were measured according to El-Sayed et al.

A. terreus ODC [6] = biological target: T1, A. terreus ODC; assay: Kinetic parameters of A. terreus ODC for substrates; conditions: substrate of A. terreus ODC
Protocol: as §1, §2

N=C(N)NCCC[C@H](N)C(=O)O = assay: purified protein, by the assay type; conditions: other: substrate of A. terreus ODC
Protocol: (§4) The putative enzymatic byproducts such as ammonia, citrulline and putrescine were determined by Nessler’s reagent [66], diacetylmonoxime reagent [36] and TNBS [42], respectively, under standard conditions. The kinetic parameters of A. terreus ODC; Michalis-Menten constant (Km), maximum velocity (Vmax), and turnover number (kcat) and catalytic efficiency towards the most hydrolysable amino acids were calculated.
NCCCC[C@H](N)C(=O)O = assay: purified protein, by the assay type; conditions: other: substrate of A. terreus ODC
Protocol: as §4

## N=C(N)NCCC[C@H](N)C(=O)O [L-Arginine]
A. terreus ODC [1]
  Nessler's Assay Activity: 0.35 µmol/mg/min
  Nessler's Assay Relative Activity: 19%
A. terreus ODC [2]
  Diacetyl Monoxime Assay Relative Activity: 194%
A. terreus ODC [2]; deiminating activity
  Diacetyl Monoxime Assay Activity: 0.0068 µmol/mg/min
A. terreus ODC [3]
  TNBS Assay Activity: 0.34 µmol/mg/min
  TNBS Assay Relative Activity: 16.2%

## C[C@H](N)C(=O)O [L-alanine]
A. terreus ODC [4]
  affinity of purified ODC towards the amino acid as substrate: no detectable affinity

## C#CCC(N)C(=O)O (stereo not drawn) [Propargylgycine, propargylglycine]
A. terreus ODC [5]; inhibitor 5 µg/mL
  Relative Activity (%): 89%
A. terreus ODC [5]; inhibitor 40 µg/mL
  Relative Activity (%): 30%
A. terreus ODC [5]; inhibitor 200 µg/mL
  Relative Activity (%): 17%
A. terreus ODC [5]; inhibitor 400 µg/mL
  Relative Activity (%): 6%
A. terreus ODC [5]; 2 h preincubation
  IC50: 20.9 µg/mL

## Cn1c(=NN)sc2ccccc21 [3-Methyl-2-benzo-thiazolinone hydrazone, 3-methyl-2-benzothiazolinone-hydrazone]
A. terreus ODC [5]
  activity at 5 µg/mL: 41%
  activity at 40 µg/mL: 29%
  activity at 200 µg/mL: 12%
  activity at 400 µg/mL: 0%

## NCCC[C@H](N)C(=O)O [L-Ornithine]
A. terreus ODC [6]
  Km: 950 µM
  Vmax: 4.8 µmol/mg/min
A. terreus ODC [6]; listed as L-ornithine
  Km: 900 µM
A. terreus ODC [1]
  Nessler's Assay Activity: 1.87 µmol/mg/min
A. terreus ODC [2]; deiminating activity
  Diacetyl Monoxime Assay Activity: 0.0035 µmol/mg/min
A. terreus ODC [3]
  TNBS Assay Activity: 2.1 µmol/mg/min

## CC(=O)N[C@@H]1[C@@H](O)[C@H](O)[C@@H](CO)O[C@H]1O [N-acetylglucosamine]
A. terreus ODC [4]
  affinity of purified ODC towards the amino acid as substrate: no detectable affinity

## NCC(=O)O [L-glycine]
A. terreus ODC [4]
  affinity of purified ODC towards the amino acid as substrate: no detectable affinity

## NC(=O)CI [Iodoacetamide, iodoacetamide]
A. terreus ODC [5]; inhibitor 5 µg/mL
  Relative Activity (%): 37%
A. terreus ODC [5]; inhibitor 40 µg/mL
  Relative Activity (%): 19%
A. terreus ODC [5]; inhibitor 200 µg/mL
  Relative Activity (%): 10%
A. terreus ODC [5]; inhibitor 400 µg/mL
  Relative Activity (%): 0%

## CSCC[C@H](N)C(=O)O [L-methionine]
A. terreus ODC [4]
  affinity of purified ODC towards the amino acid as substrate: no detectable affinity

## NO [Hydroxylamine, hydroxylamine]
A. terreus ODC [5]; inhibitor 5 µg/mL
  Relative Activity (%): 45%
A. terreus ODC [5]; inhibitor 40 µg/mL
  Relative Activity (%): 13%
A. terreus ODC [5]; inhibitor 200 µg/mL
  Relative Activity (%): 0%
A. terreus ODC [5]; inhibitor 400 µg/mL
  Relative Activity (%): 0%

## NC(=O)C[C@H](N)C(=O)O [L-asparagine]
A. terreus ODC [4]
  affinity of purified ODC towards the amino acid as substrate: no detectable affinity

## N[C@@H](Cc1c[nH]c2ccccc12)C(=O)O [L-tryptophan]
A. terreus ODC [4]
  affinity of purified ODC towards the amino acid as substrate: no detectable affinity

## CC(C)[C@H](N)C(=O)O [L-valine]
A. terreus ODC [4]
  affinity of purified ODC towards the amino acid as substrate: no detectable affinity

## N[C@@H](Cc1ccc(O)cc1)C(=O)O [L-tyrosine]
A. terreus ODC [4]
  affinity of purified ODC towards the amino acid as substrate: no detectable affinity

## NCCCC[C@H](N)C(=O)O [L-Lysine]
A. terreus ODC [1]
  Nessler's Assay Activity: 0 µmol/mg/min
  Nessler's Assay Relative Activity: 0%
A. terreus ODC [2]; deiminating activity
  Diacetyl Monoxime Assay Activity: 0.0045 µmol/mg/min
A. terreus ODC [2]; deiminating activity, normalized to L-ornithine
  Diacetyl Monoxime Assay Relative Activity: 128%
A. terreus ODC [3]
  TNBS Assay Activity: 0.44 µmol/mg/min
  TNBS Assay Relative Activity: 20.9%

## COc1cc(/C=C/C(=O)CC(=O)/C=C/c2ccc(O)c(OC)c2)ccc1O [Curcumin, diferuloylmethane]
A. terreus ODC [5]; IC50, purified A. terreus ODC, 2 h preincubation
  pIC50: ~6.96 and 6.96
A. terreus ODC [5]
  activity at 5 µg/mL: 11%
  activity at 40 µg/mL: 0%
  activity at 200 µg/mL: 0%
  activity at 400 µg/mL: 0%

## N#CS.N=C(N)N [Guanidine thiocyanate, guanidine thiocyanate]
A. terreus ODC [5]; inhibitor 5 µg/mL
  Relative Activity (%): 90%
A. terreus ODC [5]; inhibitor 40 µg/mL
  Relative Activity (%): 60%
A. terreus ODC [5]; inhibitor 200 µg/mL
  Relative Activity (%): 30%

## NC(=O)CC[C@H](N)C(=O)O [L-glutamine]
A. terreus ODC [4]
  affinity of purified ODC towards the amino acid as substrate: no detectable affinity

## A. terreus ODC (Aspergillus terreus NIH2624)
N=C(N)NCCC[C@H](N)C(=O)O
  Km: 1400 µM
  kcat/Km: 0.0246 M⁻¹ s⁻¹
NCCCC[C@H](N)C(=O)O
  Km: 1340 µM
  kcat/Km: 0.0283 M⁻¹ s⁻¹

## O=C(O)c1cc(SSc2ccc([N+](=O)[O-])c(C(=O)O)c2)ccc1[N+](=O)[O-] [5-5′-Dithiobis-(2-nitro-benzoic acid), 5,5′-dithiobis-2-nitrobenzoic acid]
A. terreus ODC [5]; inhibitor 5 µg/mL
  Relative Activity (%): 39%
A. terreus ODC [5]; inhibitor 40 µg/mL
  Relative Activity (%): 27%
A. terreus ODC [5]; inhibitor 200 µg/mL
  Relative Activity (%): 14%
A. terreus ODC [5]; inhibitor 400 µg/mL
  Relative Activity (%): 5.8%

## N[C@@H](CS)C(=O)O [L-cysteine]
A. terreus ODC [4]
  affinity of purified ODC towards the amino acid as substrate: no detectable affinity

## NCCCC(N)(C(=O)O)C(F)F (stereo not drawn) [DFMO, Difluoromethylornithine]
A. terreus ODC [5]; inhibitor 5 µg/mL
  Relative Activity (%): 8%
A. terreus ODC [5]; inhibitor 40 µg/mL
  Relative Activity (%): 0.1%
A. terreus ODC [5]; inhibitor 200 µg/mL
  Relative Activity (%): 0%
A. terreus ODC [5]; inhibitor 400 µg/mL
  Relative Activity (%): 0%
A. terreus ODC [5]; 2 h preincubation
  IC50: 0.02 µg/mL
